Measured values: PubChem BioAssay (NCI)
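Briefly, cells in 96-well plates were exposed to five compound concentrations for 48 h, and endpoints were estimated by linear interpolation. The concentration for full growth arrest is given as TGI.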

Columns and labels:
Experiment in all cases: NCI tumour cell line growth inhibition, 48 h
[1] = tested on: A498 renal
[2] = tested on: A549 NSCLC
[3] = tested on: ACHN renal
[4] = tested on: CAKI-1 renal
[5] = tested on: COLO 205 colon
[6] = tested on: DMS 114 small cell lung
[7] = tested on: DMS 273 small cell lung
[8] = tested on: EKVX NSCLC
[9] = tested on: HCT-116 colon
[10] = tested on: HCT-15 colon
[11] = tested on: HOP-18 NSCLC
[12] = tested on: HOP-92 NSCLC
[13] = tested on: HT29 colon
[14] = tested on: IGROV1 ovarian
[15] = tested on: KM12 colon
[16] = tested on: KM20L2 colon
[17] = tested on: LOX IMVI melanoma
[18] = tested on: LXFL 529 NSCLC
[19] = tested on: M14 melanoma
[20] = tested on: M19-MEL melanoma
[21] = tested on: NCI-H226 lung
[22] = tested on: NCI-H23 lung
[23] = tested on: NCI-H460 lung
[24] = tested on: NCI-H522 lung
[25] = tested on: OVCAR-3 ovarian
[26] = tested on: OVCAR-4 ovarian
[27] = tested on: OVCAR-5 ovarian
[28] = tested on: OVCAR-8 ovarian
[29] = tested on: RXF-631 renal
[30] = tested on: SF-268 CNS
[31] = tested on: SF-295 CNS
[32] = tested on: SK-MEL-28 melanoma
[33] = tested on: SK-MEL-5 melanoma
[34] = tested on: SK-OV-3 ovarian
[35] = tested on: SN12C renal
[36] = tested on: SNB-19 CNS
[37] = tested on: SNB-75 CNS
[38] = tested on: SNB-78 CNS
[39] = tested on: SW-620 colon
[40] = tested on: TK-10 renal
[41] = tested on: U251 CNS
[42] = tested on: UACC-257 melanoma
[43] = tested on: UACC-62 melanoma
[44] = tested on: UO-31 renal
[45] = tested on: XF 498 CNS
[46] = tested on: CCRF-CEM leukemia
[47] = tested on: DLD-1 colon
[48] = tested on: HCC-2998 colon
[49] = tested on: HL-60(TB) leukemia
[50] = tested on: HOP-62 NSCLC
[51] = tested on: K-562 leukemia
[52] = tested on: MALME-3M melanoma
[53] = tested on: MCF7 breast
[54] = tested on: MOLT-4 leukemia
[55] = tested on: NCI/ADR-RES ovarian
[56] = tested on: P388 leukemia
[57] = tested on: P388/ADR leukemia
[58] = tested on: RPMI-8226 leukemia
[59] = tested on: RXF 393 renal
[60] = tested on: SF-539 CNS
[61] = tested on: SK-MEL-2 melanoma
[62] = tested on: SN12K1 renal
[63] = tested on: 786-0 renal

`O=C1CCC(NC(=O)Cc2ccc(O)cc2)C(=O)N1` (configuration not stated) showed a TGI [1] greater than 2500 µM, a TGI [2] greater than 2500 µM and a TGI [3] greater than 2500 µM. For the same compound, the TGI [4] was greater than 2500 µM, the TGI [5] was greater than 2500 µM and the TGI [6] was greater than 2500 µM. For the same compound, the TGI [7] was greater than 2500 µM, the TGI [8] was greater than 2500 µM and the TGI [9] was greater than 2500 µM. The TGI [10] was greater than 2500 µM, the TGI [11] was greater than 2500 µM and the TGI [12] was greater than 2500 µM. For the same compound, the TGI [13] was greater than 2500 µM, the TGI [14] was greater than 2500 µM and the TGI [15] was greater than 2500 µM. It also gave a TGI [16] greater than 2500 µM, a TGI [17] greater than 2500 µM and a TGI [18] greater than 2500 µM. The TGI [19] was greater than 2500 µM, the TGI [20] was greater than 2500 µM and the TGI [21] was greater than 2500 µM. For the same compound, the TGI [22] was greater than 2500 µM, the TGI [23] was greater than 2500 µM and the TGI [24] was greater than 2500 µM. The TGI [25] was greater than 2500 µM, the TGI [26] was greater than 2500 µM and the TGI [27] was greater than 2500 µM. The TGI [28] was greater than 2500 µM, the TGI [29] was greater than 2500 µM and the TGI [30] was greater than 2500 µM. For the same compound, the TGI [31] was greater than 2500 µM, the TGI [32] was greater than 2500 µM and the TGI [33] was greater than 2500 µM. The TGI [34] was greater than 2500 µM, the TGI [35] was greater than 2500 µM and the TGI [36] was greater than 2500 µM. For the same compound, the TGI [37] was greater than 2500 µM, the TGI [38] was greater than 2500 µM and the TGI [39] was greater than 2500 µM. It also gave a TGI [40] greater than 2500 µM, a TGI [41] greater than 2500 µM and a TGI [42] greater than 2500 µM. It also gave a TGI [43] greater than 2500 µM, a TGI [44] greater than 2500 µM and a TGI [45] greater than 2500 µM.

With `CN1CCC23c4ccccc4NC1C21CCN(C)C3Nc2ccccc21` the TGI [1] was greater than 375 µM, the TGI [2] was greater than 375 µM and the TGI [4] was greater than 164 µM. For the same compound, the TGI [46] was greater than 188 µM, the TGI [5] was greater than 375 µM and the TGI [47] was greater than 375 µM. The TGI [6] was greater than 375 µM, the TGI [7] was greater than 375 µM and the TGI [8] was greater than 375 µM. It also gave a TGI [48] greater than 375 µM, a TGI [9] greater than 375 µM and a TGI [10] greater than 375 µM. It also gave a TGI [49] of 109 µM, a TGI [11] greater than 375 µM and a TGI [50] greater than 375 µM. It also gave a TGI [12] of 296 µM, a TGI [13] greater than 375 µM and a TGI [14] greater than 375 µM. It also gave a TGI [51] greater than 187 µM, a TGI [15] greater than 284 µM and a TGI [16] greater than 350 µM. The TGI [17] was greater than 375 µM, the TGI [20] was greater than 375 µM and the TGI [52] was greater than 337 µM. It also gave a TGI [53] greater than 375 µM, a TGI [54] greater than 165 µM and a TGI [21] greater than 209 µM. It also gave a TGI [22] greater than 375 µM, a TGI [23] greater than 375 µM and a TGI [24] greater than 375 µM. It also gave a TGI [55] greater than 375 µM, a TGI [25] greater than 375 µM and a TGI [26] greater than 375 µM. It also gave a TGI [27] greater than 375 µM, a TGI [28] greater than 37.5 µM and a TGI [56] greater than 124 µM. The TGI [57] was greater than 375 µM, the TGI [58] was greater than 182 µM and the TGI [59] was greater than 375 µM. It also gave a TGI [31] greater than 375 µM, a TGI [60] greater than 375 µM and a TGI [61] greater than 375 µM. It also gave a TGI [32] greater than 375 µM, a TGI [33] greater than 174 µM and a TGI [34] greater than 375 µM. The TGI [35] was greater than 375 µM, the TGI [62] was greater than 275 µM and the TGI [36] was greater than 375 µM. The TGI [37] was greater than 375 µM, the TGI [38] was greater than 158 µM and the TGI [39] was greater than 375 µM. It also gave a TGI [41] greater than 375 µM, a TGI [42] of 231 µM and a TGI [43] greater than 375 µM. The TGI [44] was greater than 375 µM.

With `N#Cc1c(C(N)=O)ncn1Cc1ccccc1` the TGI [63] was greater than 100 µM, the TGI [1] was greater than 100 µM and the TGI [2] was greater than 100 µM. It also gave a TGI [3] greater than 100 µM, a TGI [4] greater than 100 µM and a TGI [46] greater than 100 µM. It also gave a TGI [5] greater than 100 µM, a TGI [47] greater than 100 µM and a TGI [6] greater than 100 µM. It also gave a TGI [7] greater than 100 µM, a TGI [8] greater than 100 µM and a TGI [48] greater than 100 µM. It also gave a TGI [9] greater than 100 µM, a TGI [10] greater than 100 µM and a TGI [49] greater than 100 µM. For the same compound, the TGI [11] was greater than 100 µM, the TGI [50] was greater than 100 µM and the TGI [12] was greater than 100 µM. For the same compound, the TGI [13] was greater than 100 µM, the TGI [14] was greater than 100 µM and the TGI [51] was greater than 100 µM. The TGI [15] was greater than 100 µM, the TGI [16] was greater than 100 µM and the TGI [17] was greater than 100 µM. It also gave a TGI [18] greater than 100 µM, a TGI [19] greater than 100 µM and a TGI [20] greater than 100 µM. For the same compound, the TGI [52] was greater than 100 µM, the TGI [54] was greater than 100 µM and the TGI [21] was greater than 100 µM. It also gave a TGI [22] greater than 100 µM, a TGI [23] greater than 100 µM and a TGI [24] greater than 100 µM. It also gave a TGI [25] greater than 100 µM, a TGI [26] greater than 100 µM and a TGI [27] greater than 100 µM. The TGI [28] was greater than 100 µM, the TGI [58] was greater than 100 µM and the TGI [59] was greater than 100 µM. For the same compound, the TGI [29] was greater than 100 µM, the TGI [30] was greater than 100 µM and the TGI [31] was greater than 100 µM. For the same compound, the TGI [60] was greater than 100 µM, the TGI [61] was greater than 100 µM and the TGI [33] was greater than 100 µM. It also gave a TGI [34] greater than 100 µM, a TGI [35] greater than 100 µM and a TGI [36] greater than 100 µM. It also gave a TGI [37] greater than 100 µM, a TGI [38] greater than 100 µM and a TGI [39] greater than 100 µM. For the same compound, the TGI [40] was greater than 100 µM, the TGI [41] was greater than 100 µM and the TGI [42] was greater than 100 µM. For the same compound, the TGI [43] was greater than 100 µM, the TGI [44] was greater than 100 µM and the TGI [45] was greater than 100 µM.
